Experimental data published in patent publication US8754036B2, “Method for treating neuropathic pain” (National University Corporation Nagoya University, priority 2007, dated 2014).

Tested on: neurons from primary cortical nerve tissue
Test: Suppression of Rho kinase activation (neurite lengths, keratan sulfate, Y27632)
Assay type: cell-based, mice
Method: Next, participation of Rho kinase was investigated in order to investigate the action mechanism of keratanase II in the above Experiment 1. The neurons were seeded onto an 8-well chamber to which a test sample was applied by the same manner as in the method of Experiment 1. Twenty-four hours after starting the incubation of the neurons, 15 μM of Y27632 (Rho kinase inhibitor, Sigma) was added to the neurons followed by incubating for 24 hours more. After that, the chamber was fixed with 4% of paraformaldehyde and the neurons were identified by an immunohistochemical means with Neuronal Class IIIβ tubulin (TUJ1) antibody (COVANCE). The neurite lengths were measured of from 80 to 90 neurons per condition, an average value thereof was calculated and shown by a graph. The test sample was the following four types.
(1) that which was applied with 25 μg/mL of poly-L-lysine (Sigma; hereinafter, the same) followed by being applied with 10 μg/mL of laminin (BD Biosciences; hereinafter, the same).
(2) that which was applied with 25 μg/mL of poly-L-lysine followed by being applied with 10 μg/mL of laminin and 20 μg/mL of keratan sulfate (Seikagaku Corporation; hereinafter, the same).
(3) that which was applied with 25 μg/mL of poly-L-lysine followed by being applied with 10 μg/mL of laminin and 40 μg/mL of keratan sulfate. […]

release of inhibiting action for elongation of neurite lengths induced by keratan sulfate (keratan sulfate on poly-L-lysine/laminin, Y27632 15 μM or Ks36 keratanase II 0.01 U/mL without Y27632) | effect on elongation of the neurite lengths (keratan sulfate 20 or 40 μg/mL on poly-L-lysine/laminin) | Compound
released | – | C[C@@H](N)[C@H]1CC[C@H](C(=O)Nc2ccncc2)CC1 [Y27632]
– | induces the inhibition | keratan sulfate
